In patent US8785488B2 (Exelixis Patent Company LLC, priority 2009, dated 2014):

What was measured:
human TGR5 (h-TGR5) = target: T1, human TGR5 (h-TGR5) (Homo sapiens, UniProt Q8TDU6); assay: TGR5/CRE-Luciferiase Assay (HEK 293 hTGR5/CRE-Luc cells); type: cell-based; settings: h-TGR5 CRE-Luc EC50, Table 1; read-out: CRE-Luc (EC50)
T1 construct: expressed in transfected cells
T1 sequence (Q8TDU6 1-330): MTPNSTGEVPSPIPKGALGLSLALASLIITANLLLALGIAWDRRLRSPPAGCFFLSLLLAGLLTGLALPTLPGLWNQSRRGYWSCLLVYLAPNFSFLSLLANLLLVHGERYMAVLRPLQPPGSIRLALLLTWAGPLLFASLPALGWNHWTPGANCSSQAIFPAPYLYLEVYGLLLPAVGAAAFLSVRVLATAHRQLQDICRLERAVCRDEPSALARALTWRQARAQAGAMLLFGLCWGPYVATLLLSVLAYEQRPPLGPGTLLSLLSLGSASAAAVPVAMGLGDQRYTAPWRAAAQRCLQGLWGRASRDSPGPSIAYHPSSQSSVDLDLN
How it was run: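 HEK293 cells stably carrying hTGR5 and a CRE-luciferase reporter were exposed to serially diluted compounds (diluted in DMEM with 5% DMSO) for 6 h. Cells were then lysed in luciferase buffer, luminescence was read, and EC50 values were derived from dose-response curves.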

h-TGR5 = target: T2, h-TGR5 (Homo sapiens, UniProt Q8TDU6); assay: TGR5 cAMP Assay using Cisbio cAMP Dynamic2 htrf kit (hTGR5CRE-luc HEK 293 cells); type: cell-based; settings: h-TGR5 cAMP EC50, Table 1; read-out: cAMP (EC50)
T2 construct: expressed in transfected cells
T2 sequence (Q8TDU6 1-330): T1 sequence (Q8TDU6 1-330)
How it was run: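 […], 4000 hTGR5CRE-luc HEK 293 cells per well, with 0.5 mM IBMX and d2-cAMP, were incubated 30 min at room temperature with compounds in 8-point half-log series, in quadruplicate.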

| SMILES | EC50 (human TGR5 (h-TGR5)) [nM] | EC50 (h-TGR5) [nM] |
| --- | --- | --- |
| CC(C)(c1ccc(F)c(C#N)c1)c1cnc(SCc2ccc(S(=O)(=O)NC(=O)NN3CCCC3)cc2Cl)n1-c1ccc(F)cc1 [3-chloro-4-[({5-[1-(3-cyano-4-fluorophenyl)-1-methylethyl]-1-(4-fluorophenyl)-1H-imidazol-2-yl}thio)methyl]-N-[(pyrrolidin-1-ylamino)carbonyl]benzenesulfonamide] | 100 to 1000 | 100 to 1000 |
| CC(C)NC(=O)NS(=O)(=O)c1ccc(CSc2ncc(C(C)(C)c3ccc(F)c(C#N)c3)n2-c2ccc(F)cc2)c(Cl)c1 [3-chloro-4-[({5-[1-(3-cyano-4-fluorophenyl)-1-methylethyl]-1-(4-fluorophenyl)-1H-imidazol-2-yl}thio)methyl]-N-{[(1-methylethyl)amino]carbonyl}benzenesulfonamide] | 100 to 1000 | 100 to 1000 |
| COc1cc(-n2c(C(C)(C)c3ccc(F)c(C#N)c3)cnc2SCc2ccc(S(=O)(=O)NC(=O)NN3CCCC3)cc2Cl)ccc1F [3-chloro-4-[({5-[1-(3-cyano-4-fluorophenyl)-1-methylethyl]-1-[4-fluoro-3-(methyloxy)phenyl]-1H-imidazol-2-yl}thio)methyl]-N-[(pyrrolidin-1-ylamino)carbonyl]benzenesulfonamide] | 100 to 1000 | 100 to 1000 |
| COc1cc(-n2c(C(C)(C)c3ccc(F)c(C#N)c3)cnc2SCc2ccc(S(=O)(=O)NC(=O)NC(C)C)cc2Cl)ccc1F [3-chloro-4-[({5-[1-(3-cyano-4-fluorophenyl)-1-methylethyl]-1-[4-fluoro-3-(methyloxy)phenyl]-1H-imidazol-2-yl}thio)methyl]-N-{[(1-methylethyl)amino]carbonyl}benzenesulfonamide] | < 100 | < 100 |
| Cc1cc(-n2c(C(C)(C)c3ccc(Cl)c(Cl)c3)cnc2SCc2ccc(S(=O)(=O)NC(=O)NN3CCCC3)cc2Cl)ccc1F [3-chloro-4-[({5-[l-(3,4-dichlorophenyl)-1-methylethyl]-1-(4-fluoro-3-methylphenyl)-1H-imidazol-2-yl}thio)methyl]-N-[(pyrrolidin-1-ylamino)carbonyl]benzenesulfonamide] | 100 to 1000 | 100 to 1000 |
| COc1cc(-n2c(C(C)(C)c3ccc(S(C)(=O)=O)cc3)cnc2SCc2ccc(S(=O)(=O)NC(=O)NN3CCCC3)cc2Cl)ccc1F [3-chloro-4-{[(1-[4-fluoro-3-(methyloxy)phenyl]-5-{1-methyl-1-[4-(methylsulfonyl)phenyl]ethyl}-1H-imidazol-2-yl)thio]methyl}-N-[(pyrrolidin-1-ylamino)carbonyl]benzenesulfonamide] | 100 to 1000 | 1000 to 10000 |
| CC(C)(c1ccc(Cl)c(Cl)c1)c1cnc(SCc2c(F)cc(C(=O)O)cc2Cl)n1-c1ccc(F)c(OCCCO)c1 [3-chloro-4-{[(5-[1-(3,4-dichlorophenyl)-1-methylethyl]-1-{4-fluoro-3-[(3-hydroxypropyl)oxy]phenyl}-1H-imidazol-2-yl)thio]methyl}-5-fluorobenzoic acid] | 100 to 1000 | 100 to 1000 |
| COc1cc(-n2c(C(C)(C)c3ccc(S(C)(=O)=O)c(Cl)c3)cnc2SCc2ccc(S(=O)(=O)NC(=O)NN3CCCC3)cc2Cl)ccc1F [3-chloro-4-{[(5-{1-[3-chloro-4-(methylsulfonyl)phenyl]-1-methylethyl}-1-[4-fluoro-3-(methyloxy)phenyl]-1H-imidazol-2-yl)thio]methyl}-N-[(pyrrolidin-1-ylamino)carbonyl]benzenesulfonamide] | 100 to 1000 | 100 to 1000 |
| COc1cc(C(C)(C)c2cnc(SCc3ccc(S(=O)(=O)NC(=O)NN4CCCC4)cc3Cl)n2-c2ccc(F)c(CO)c2)ccc1Cl [3-chloro-4-{[(5-{1-[4-chloro-3-(methyloxy)phenyl]-1-methylethyl}-1-[4-fluoro-3-(hydroxymethyl)phenyl]-1H-imidazol-2-yl)thio]methyl}-N-[(pyrrolidin-1-ylamino)carbonyl]benzenesulfonamide] | 100 to 1000 | 100 to 1000 |
| COc1cc(-n2c(C(C)(C)c3ccc(Cl)c(OC)c3)cnc2SCc2ccc(S(=O)(=O)NC(=O)NN3CCCC3)cc2Cl)ccc1F [3-chloro-4-{[(5-{1-[4-chloro-3-(methyloxy)phenyl]-1-methylethyl}-1-[4-fluoro-3-(methyloxy)phenyl]-1H-imidazol-2-yl)thio]methyl}-N-[(pyrrolidin-1-ylamino)carbonyl]benzenesulfonamide] | < 100 | < 100 |
| COc1cc(C(C)(C)c2cnc(SCc3c(F)cc(C(=O)O)cc3Cl)n2-c2cccnc2)ccc1Cl [3-chloro-4-{[(5-{1-[4-chloro-3-(methyloxy)phenyl]-1-methylethyl}-1-pyridin-3-yl-1H-imidazol-2-yl)thio]methyl}-5-fluorobenzoic acid] | 1000 to 10000 | 1000 to 10000 |
| COc1cc(-n2c(C(C)(C)c3ccc(F)c(Cl)c3)cnc2SCc2c(F)cc(CCCN(C)C)cc2F)ccc1F [3-{4-[({5-[1-(3-chloro-4-fluorophenyl)-1-methylethyl]-1-[4-fluoro-3-(methyloxy)phenyl]-1H-imidazol-2-yl}thio)methyl]-3,5-difluorophenyl}-N,N-dimethylpropan-1-amine] | < 100 | < 100 |
| COc1cc(-n2c(C(C)(C)c3ccc(S(N)(=O)=O)c(Cl)c3)cnc2SCc2ccc(S(N)(=O)=O)cc2Cl)ccc1F [4-(1-{2-({[4-(aminosulfonyl)-2-chlorophenyl]methyl}thio)-1-[4-fluoro-3-(methyloxy)phenyl]-1H-imidazol-5-yl}-1-methylethyl)-2-chlorobenzenesulfonamide] | < 100 | < 100 |
| COc1cc(C(C)(C)c2cnc(SCc3c(F)cc(C(=O)NCCCC(=O)O)cc3Cl)n2-c2ccc(F)cc2)ccc1Cl [4-({[3-chloro-4-({[5-{1-[4-chloro-3-(methyloxy)phenyl]-1-methylethyl}-1-(4-fluorophenyl)-1H-imidazol-2-yl]thio}methyl)-5-fluorophenyl]carbonyl}amino)butanoic acid] | < 100 | < 100 |
| COc1cc(C(C)(C)c2c(Cl)nc(SCC3CCN(c4nnn[nH]4)CC3)n2-c2ccc(F)cc2)ccc1Cl [4-({[4-chloro-5-{1-[4-chloro-3-(methyloxy)phenyl]-1-methylethyl}-1-(4-fluorophenyl)-1H-imidazol-2-yl]thio}methyl)-1-(1H-tetrazol-5-yl)piperidine] | < 100 | 1000 to 10000 |
| COc1cc(C(C)(C)c2c(Cl)nc(SCC3CCN(S(C)(=O)=O)CC3)n2-c2ccc(F)cc2)ccc1Cl [4-({[4-chloro-5-{1-[4-chloro-3-(methyloxy)phenyl]-1-methylethyl}-1-(4-fluorophenyl)-1H-imidazol-2-yl]thio}methyl)-1-(methylsulfonyl)piperidine] | 100 to 1000 | 100 to 1000 |
| COc1ccc(C(C)(C)c2cnc(SCc3ccc(C(N)=O)cc3F)n2-c2ccc(F)cc2)cc1OC [4-({[5-{1-[3,4-bis(methyloxy)phenyl]-1-methylethyl}-1-(4-fluorophenyl)-1H-imidazol-2-yl]thio}methyl)-3-fluorobenzamide] | 100 to 1000 | < 100 |
| CC(C)(c1ccc(Cl)c(S(N)(=O)=O)c1)c1cnc(SCc2c(F)cc(C(=O)O)cc2Cl)n1-c1ccc(F)cc1 [4-({[5-{1-[3-(aminosulfonyl)-4-chlorophenyl]-1-methylethyl}-1-(4-fluorophenyl)-1H-imidazol-2-yl]thio}methyl)-3-chloro-5-fluorobenzoic acid] | 100 to 1000 | 100 to 1000 |
| COc1ccc(C(C)(C)c2cnc(SCc3c(F)cc(C(=O)O)cc3F)n2-c2ccc(F)cc2)cc1Cl [4-({[5-{1-[3-chloro-4-(methyloxy)phenyl]-1-methylethyl}-1-(4-fluorophenyl)-1H-imidazol-2-yl]thio}methyl)-3,5-difluorobenzoic acid] | < 100 | < 100 |
| COc1ccc(C(C)(C)c2cnc(SCc3c(F)cc(C#N)cc3F)n2-c2ccc(F)cc2)cc1Cl [4-({[5-{1-[3-chloro-4-(methyloxy)phenyl]-1-methylethyl}-1-(4-fluorophenyl)-1H-imidazol-2-yl]thio}methyl)-3,5-difluorobenzonitrile] | < 100 | < 100 |
| COc1cc(C(C)(C)c2cnc(SCc3ccc(S(=O)(=O)NC(=O)NN4CCCC4)cc3Cl)n2-c2ccc(F)cc2)ccc1S(N)(=O)=O [4-({[5-{1-[4-(aminosulfonyl)-3-(methyloxy)phenyl]-1-methylethyl}-1-(4-fluorophenyl)-1H-imidazol-2-yl]thio}methyl)-3-chloro-N-[(pyrrolidine-1-ylamino)carbonyl]benzenesulfonamide] | 100 to 1000 | 100 to 1000 |
| CC(C)(c1ccc(S(N)(=O)=O)c(Cl)c1)c1cnc(SCc2c(F)cc(C(=O)O)cc2F)n1-c1ccc(F)c(F)c1 [4-({[5-{1-[4-(aminosulfonyl)-3-chlorophenyl]-1-methylethyl}-1-(3,4-difluorophenyl)-1H-imidazol-2-yl]thio}methyl)-3,5-difluorobenzoic acid] | < 100 | < 100 |
